Test results: patent US12728186B2, “Methods and kits for preparing pathogen-inactivated whole blood” (priority 2018, dated 2026)
“And” between values parts separate entries of the source, which are not always exact repeats. Equal entries are not always repeated.

Tests used:
Assay type in all cases: physicochemical
[1] = Residual unreacted amustaline by LCMS, Example 5 (2-container kits, transfer at 18, 20 or 22 hr); settings: Units 15-21, 2-container kit, transfer time 22 hr, 22° C.
Procedure: A further study was performed to evaluate additional conditions for the preparation of pathogen-inactivated whole blood using amustaline and GSH in 2-container kits of the present disclosure (e.g., FIG. 3b). Amustaline and GSH were added to the whole blood units at 0.2 mM and 2.0 mM final concentrations, respectively, in the first container. […] Following transfer to the second container the mixtures were further incubated at 22° C., with sampling for analysis at 2 hr intervals as shown in Table 6.
(§1) Samples were analyzed by LCMS to determine the level of residual, unreacted amustaline as previously described.

[2] = Residual unreacted amustaline by LCMS, Example 2 (3-container kit)
Procedure: Another study was performed to evaluate the effect of container transfer on residual levels of amustaline after pathogen-inactivation of whole blood using a 3-container kit of the present disclosure to allow for one or two transfer steps from the initial (e.g., first) container and a similar filter set as Example 1. Six ABO matched whole blood units in anticoagulant were pooled and split into six ~450 mL units transferred into the first blood bag container of the kit comprising Transfufol 3226 PVC film (Renolit), followed by severing and sealing the pooled donor blood bag, and subsequent connection by tubing welding of a filter set to the same input port (e.g., attached tubing) of the first container, for transferring amustaline and GSH into the whole blood. Amustaline and GSH were added to the whole blood units at final concentrations of 0.2 mM and 2.0 mM, respectively, followed by transfer of the mixture to the second bag (Transfufol 3226 PVC film) and incubated at 22° C. At 22 hr, samples were taken for analysis along with transfer of the mixture to the third bag (Transfufol 3226 PVC film), followed by further incubation at 22° C., with additional samples taken for analysis at 24 hr (i.e., 2 hr post-final transfer) and 26 hr (i.e., 4 hr post-final transfer).
as §1

[3] = Residual unreacted amustaline by LCMS, Example 1 (treatment container; samples moved to separate containers); settings: for Residual amustaline levels in pathogen-inactivated whole blood, 21 hr / Residual amustaline levels in pathogen-inactivated whole blood, 24 hr / Residual amustaline levels in pathogen-inactivated whole blood, 27 hr / Residual amustaline levels in pathogen-inactivated whole blood, 30 hr / Residual amustaline levels in pathogen-inactivated whole blood, 33 hr / Residual amustaline levels in pathogen-inactivated whole blood, 36 hr / Residual amustaline levels in pathogen-inactivated whole blood, 42 hr: no transfer, 0.2 mM amustaline, 2.0 mM GSH
Procedure: Pathogen inactivated whole blood was prepared with the pathogen inactivation compound, amustaline, and the quencher glutathione (Henschler et al., 2011, Transfus Med Hemother 38:33-42), in a kit of the present disclosure comprising a treatment container and tubing with a 3-way branch for introducing the amustaline/GSH (e.g., a “filter set”) comprising two in line filters for coupling (e.g., connecting) containers (e.g., syringes) of PIC and quencher, and the third branch coupled to (e.g., connected to) a sample diversion pouch (e.g., FIG. 3b). More specifically, four ABO-matched whole blood units containing anticoagulant were pooled and split into 8 half units (225 mL/half unit), added into each of eight treatment bags by connecting the pooled donor blood bag containing the whole blood to the treatment container by way of the tubing and using a tubing welder. Following transfer of the whole blood into the treatment containers, the pooled donor blood bag was removed by sealing and severing the tubing, and the filter set was sterile coupled using a tubing welder to the same input port of the treatment container via the remaining tubing. Amustaline and GSH were added to final concentrations of 0.2 mM and 2.0 mM, respectively. GSH was added first, followed by addition of amustaline, either within 5 minutes of GSH addition or after at least 15 minutes hold time, as indicated in Table 1. The mixtures were incubated at 22° C. (Units 1-4) or 25° C. (Units 5-8), with samples removed at the indicated times for analysis by liquid chromatography-mass spectrometry (LCMS) to determine the level of residual, unreacted amustaline.
Additionally, 50 mL of the mixture was removed from each of Units 2 and 8 at 24 hr and divided into two 25 mL samples in separate containers to compare storage at 4° C. versus room temperature, and for evaluation of residual amustaline levels at 2, 4, 6 and 8 hours of storage under those conditions (Table 2).

[4] = Residual unreacted amustaline by LCMS, Example 6 (treatment in blood collection bags); settings: for Residual amustaline levels in pathogen-inactivated whole blood, 20 hr / Residual amustaline levels in pathogen-inactivated whole blood, 22 hr / Residual amustaline levels in pathogen-inactivated whole blood, 24 hr: 22° C.
Procedure: More specifically, whole blood units were collected from donors and treated in either Teruflex (Terumo, BB*AGD506A2) blood collection bags (Units 2-7) or Leucoflex (MacoPharma, LQE7230LD) blood collection bags (Units 9-14) containing anticoagulant and integrated into a kit of the present disclosure. Six ABO-matched whole blood units were pooled and split into a control unit and six test units of ~450 mL each. Control units 1 and 8 used kits described in previous Examples. A filter set as previously described was sterile docked to the whole blood transfer tubing of the container that had been sealed and severed, followed by addition of amustaline and GSH to final concentrations of about 0.2 mM and 2.0 mM, respectively. GSH was added first, followed by addition of amustaline within 30 minutes. The mixtures were then incubated at 22° C. for 20 hr, with samples taken for analysis and transfer of the mixtures to the second integrally connected container for test Units 2-7 and 9-14, followed by further incubation and sampling at 2 hr intervals (i.e., 22 hr, 24 hr) for all Units as shown in Table 7.

[5] = Units 1-2, amustaline added >15 min after GSH, 22° C. in treatment container
[6] = Units 3-4, amustaline added <5 min after GSH, 22° C. in treatment container
[7] = Units 5-6, amustaline added >15 min after GSH, 25° C. in treatment container
[8] = Units 7-8, amustaline added <5 min after GSH, 25° C. in treatment container
[9] = Unit 1, control unit (kit of previous Examples, not transferred), collection bag T
[10] = Unit 8, control unit (kit of previous Examples, not transferred), collection bag M
[11] = Units 2-7, treated in Teruflex (T) blood collection bag, to second container at 20 hr
[12] = Units 9-14, treated in Leucoflex (M) blood collection bag, to second container at 20 hr

## O=C(CCNc1c2ccccc2nc2ccccc12)OCCN(CCCl)CCCl [amustaline]
[1]; 24 hr
  Residual amustaline levels in pathogen-inactivated whole blood, 24 hr: BLOQ (BLOQ = Below Limit of Quantitation (e.g., <0.75 nM))
[1]; 26 hr
  Residual amustaline levels in pathogen-inactivated whole blood, 26 hr: BLOQ (BLOQ = Below Limit of Quantitation (e.g., <0.75 nM))
[2]; Units 1-6, 3-container kit (PVC), moved to second bag after amustaline/GSH addition, 22° C., 22 hr, at transfer to third bag
  Residual amustaline levels in pathogen-inactivated whole blood, 22 hr: 1.46 nM and 1.39 nM and 1.35 nM and 1.96 nM and 1.84 nM and 1.55 nM
[2]; Units 1-6, 3-container kit (PVC), third bag from 22 hr, 22° C., 26 hr (4 hr post-final transfer)
  Residual amustaline levels in pathogen-inactivated whole blood, 26 hr: BLOQ (BLOQ = Below Limit of Quantitation (e.g., < 0.75 nM))
[2]; third bag after 22 hr, further 22° C. for 2 hr or 4 hr, all samples
  residual amustaline levels after transfer to third bag: below 1 nM
[3]; [5]
  Residual amustaline levels in pathogen-inactivated whole blood, 21 hr: 3.50 nM and 4.09 nM
  Residual amustaline levels in pathogen-inactivated whole blood, 24 hr: 2.62 nM and 2.66 nM
  Residual amustaline levels in pathogen-inactivated whole blood, 27 hr: 2.27 nM and 3.07 nM
  Residual amustaline levels in pathogen-inactivated whole blood, 30 hr: 2.11 nM and 2.95 nM
  Residual amustaline levels in pathogen-inactivated whole blood, 33 hr: 2.61 nM and 2.29 nM
  Residual amustaline levels in pathogen-inactivated whole blood, 36 hr: 1.62 nM and 1.38 nM
  Residual amustaline levels in pathogen-inactivated whole blood, 42 hr: 1.30 nM and 1.35 nM
[3]; [6]
  Residual amustaline levels in pathogen-inactivated whole blood, 21 hr: 3.45 nM and 3.85 nM
  Residual amustaline levels in pathogen-inactivated whole blood, 24 hr: 3.04 nM and 3.53 nM
  Residual amustaline levels in pathogen-inactivated whole blood, 27 hr: 3.29 nM and 3.7 nM
  Residual amustaline levels in pathogen-inactivated whole blood, 30 hr: 2.67 nM and 2.84 nM
  Residual amustaline levels in pathogen-inactivated whole blood, 33 hr: 2.16 nM and 2.22 nM
  Residual amustaline levels in pathogen-inactivated whole blood, 36 hr: 1.73 nM and 1.41 nM
  Residual amustaline levels in pathogen-inactivated whole blood, 42 hr: 1.66 nM and 1.57 nM
[3]; [7]
  Residual amustaline levels in pathogen-inactivated whole blood, 21 hr: 2.91 nM and 3.21 nM
  Residual amustaline levels in pathogen-inactivated whole blood, 24 hr: 2.44 nM and 2.58 nM
  Residual amustaline levels in pathogen-inactivated whole blood, 27 hr: 2.55 nM and 2.71 nM
  Residual amustaline levels in pathogen-inactivated whole blood, 30 hr: 2.04 nM and 2.49 nM
  Residual amustaline levels in pathogen-inactivated whole blood, 33 hr: 1.76 nM and 1.47 nM
  Residual amustaline levels in pathogen-inactivated whole blood, 36 hr: 1.89 nM and 1.87 nM
  Residual amustaline levels in pathogen-inactivated whole blood, 42 hr: 1.62 nM and 1.22 nM
[3]; [8]
  Residual amustaline levels in pathogen-inactivated whole blood, 21 hr: 3.43 nM and 4.15 nM
  Residual amustaline levels in pathogen-inactivated whole blood, 24 hr: 2.86 nM and 3.39 nM
  Residual amustaline levels in pathogen-inactivated whole blood, 27 hr: 2.74 nM and 3.30 nM
  Residual amustaline levels in pathogen-inactivated whole blood, 30 hr: 2.34 nM and 2.59 nM
  Residual amustaline levels in pathogen-inactivated whole blood, 33 hr: 1.64 nM and 2.83 nM
  Residual amustaline levels in pathogen-inactivated whole blood, 36 hr: 2.28 nM and 1.97 nM
[3]; Units 2 and 8, 25 mL sample removed at 24 hr into separate container, stored at RT, 2 hr of storage
  Residual amustaline levels in pathogen-inactivated whole blood, 2 hr: BLOQ (BLOQ = Below Limit of Quantitation (e.g., < 0.75 nM))
[3]; Units 2 and 8, 25 mL sample removed at 24 hr into separate container, stored at RT, 4 hr of storage
  Residual amustaline levels in pathogen-inactivated whole blood, 4 hr: BLOQ (BLOQ = Below Limit of Quantitation (e.g., < 0.75 nM))
[3]; Units 2 and 8, 25 mL sample removed at 24 hr into separate container, stored at RT, 6 hr of storage
  Residual amustaline levels in pathogen-inactivated whole blood, 6 hr: BLOQ (BLOQ = Below Limit of Quantitation (e.g., < 0.75 nM))
[3]; treatment mixtures from Units 2 and 8, transfer to a different container, further storage at room temperature
  residual amustaline after transfer to a different container and storage at room temperature: below the limit of quantitation
[4]; 20 hr (at transfer), Units 2-7, treated in Teruflex (T) blood collection bag, to second container at 20 hr
  Residual amustaline levels in pathogen-inactivated whole blood, 20 hr: 2.12e-09 M and 2.32e-09 M and 1.29e-09 M and 1.62e-09 M and 1.53e-09 M and 1.92e-09 M
[4]; 20 hr (at transfer), Units 9-14, treated in Leucoflex (M) blood collection bag, to second container at 20 hr
  Residual amustaline levels in pathogen-inactivated whole blood, 20 hr: 1.36e-09 M and 1.32e-09 M and 1.44e-09 M and 1.34e-09 M and 1.49e-09 M and 1.4e-09 M
[4]; 20 hr, Unit 1, control unit (kit of previous Examples, not transferred), collection bag T
  Residual amustaline levels in pathogen-inactivated whole blood, 20 hr: 2.35e-09 M
[4]; 20 hr, Unit 8, control unit (kit of previous Examples, not transferred), collection bag M
  Residual amustaline levels in pathogen-inactivated whole blood, 20 hr: 2.62e-09 M
[4]; [9]
  Residual amustaline levels in pathogen-inactivated whole blood, 22 hr: 1.61 nM
  Residual amustaline levels in pathogen-inactivated whole blood, 24 hr: 1.81 nM
[4]; [10]
  Residual amustaline levels in pathogen-inactivated whole blood, 22 hr: 1.93 nM
  Residual amustaline levels in pathogen-inactivated whole blood, 24 hr: 1.85 nM
[4]; [11]
  Residual amustaline levels in pathogen-inactivated whole blood, 22 hr: BLOQ (BLOQ = Below Limit of Quantitation (e.g., < 0.75 nM))
  Residual amustaline levels in pathogen-inactivated whole blood, 24 hr: BLOQ (BLOQ = Below Limit of Quantitation (e.g., < 0.75 nM))
[4]; [12]
  Residual amustaline levels in pathogen-inactivated whole blood, 22 hr: BLOQ (BLOQ = Below Limit of Quantitation (e.g., < 0.75 nM))
  Residual amustaline levels in pathogen-inactivated whole blood, 24 hr: BLOQ (BLOQ = Below Limit of Quantitation (e.g., < 0.75 nM))
[4]; Units treated in blood collection bags and transferred to the second bag at 20 hr
  Residual amustaline levels, Units transferred to the second bag at 20 hr: below the limit of quantitation
